# Test results published in patent US20020187534A1, “Treating cancer by increasing intracellular malonyl CoA levels” (priority 1999, published 2002).
# Legend:
# [1] = test system: SKBR3 and MCF7 human breast cancer cell lines; test: Fatty acid synthesis activity, [U-14C]-acetate pulse labeling of lipids; format: cell-based; conditions: for [U14C-acetate] incorporation into lipids: SKBR3 and MCF7, labeled for 2 hours after exposure to inhibitor; for dose range of maximal inhibition of FA synthesis: all cell lines tested
# Method: The human breast cancer cell lines, SKBR3 and MCF7 were maintained in RPMI with 10% fetal bovine serum. Cells were screened periodically for Mycoplasma contamination (Gen-probe). All inhibitors were added as stock 5 mg/ml solutions in DMSO. For fatty acid synthesis activity determinations, 5×10^4 cells/well in 24 well plates were pulse labeled with [U-^14C]-acetate after exposure to drug, and lipids were extracted and quantified as described previously (Pizer, et al., 1988). For MCF7 cells, pathway activity was determined after 2 hours of inhibitor exposure.
# [2] = test system: SKBR3 and MCF7 human breast cancer cells; test: Clonogenic assay (Example 2); format: cell-based; conditions: for cytotoxicity in clonogenic assays: inhibitors 6 hours, dose range for ACC or FAS inhibition
# Method: Cells and inhibitors were as described for Example 1. For clonogenic assays, 4×10^5 cells were plated in […] flasks with inhibitors added for 6 hours in concentrations listed. Equal numbers of treated cells and controls were plated in 60 mm dishes. Clones were stained and counted after 7 to 10 days.
# MCF-7 cells [3] = test: Malonyl-CoA levels by reversed phase HPLC; format: cell-based, human; conditions: for malonyl-CoA levels increased over controls: 1 hour exposure at 10 μg/ml
# Method: Malonyl-CoA levels were measured in MCF-7 cells using the HPLC method of Corkey, et al. (1988, “Analysis of acyl-coenzyme A esters in biological samples,” Methods in Enzymology, 166:55-70). Briefly, 2.5×10^5 cells/well in 24 well plates were subjected to 1.2 ml of 10% TCA at 4° C. after various drug treatments. The pellet mass was recorded and the supernatant was washed 6 times with 1.2 ml of ether and reduced to dryness using vacuum centrifugation at 25° C. Coenzyme-A esters were separated and quantitated using reversed phase HPLC on a 5μ Supelco C18 column with a Waters HPLC system running Millenium^32 software monitoring 254 nm as the maximum absorbance for coenzyme-A. The following gradients and buffers were utilized: Buffer A: 0.1 M potassium phosphate, pH 5.0, Buffer B: 0.1 M potassium phosphate, pH 5.0, with 40% acetonitrile. Following a 20 min. isocratic run with 92% A, 8% B at 0.4 ml/min, flow was increased to 0.8 ml/min over one minute whereupon a linear gradient to 10% B was run until 24 min. then held at 10% B until 50 min. where a linear gradient was run to 100% B at 55 min., completing at 60 min. The following coenzyme-A esters (Sigma) were run as standards: malonyl-CoA, acetyl-CoA, glutathione-CoA, succinyl-CoA, HMG-CoA, and free CoA. Samples and standards were dissolved in 50 μl of buffer A. Coenzyme-A esters eluted sequentially as follows: malonyl-CoA, glutathione-CoA, free CoA, succinyl-CoA, HMG-CoA, and acetyl-CoA. Quantitation of coenzyme-A esters was performed by the Millenium^32 software.
# MCF-7 xenografts [4] = test: Growth of subcutaneous MCF-7 xenografts in athymic nude mice; format: in vivo, mouse; conditions: 30 mg/kg intraperitoneal weekly, after 32 days
# Method: Subcutaneous flank xenografts of the human breast cancer cell line, MCF-7 in nu/nu female mice (Harlan) were used to study the anti-tumor effects of C75 in vivo. All animal experiments complied with institutional animal care guidelines. All mice received a 90-day slow-release subcutaneous estrogen pellet (Innovative Research) in the anterior flank 7 days before tumor inoculation. […] MCF-7 cells were xenografted from culture in DMEM supplemented with 10% FBS and insulin 10 μg/ml.
# (§1) Treatment began when measurable tumors developed about 10 days after inoculation. Eleven mice (divided among two separate experiments of 5 and 6 mice each) were treated intraperitoneally with wcekly doses of C75 at 30 mg/kg in 0.1 ml RPMI. […] Eleven control mice (divided in the same way as the treatment groups) received RPMI alone. Tumor volume was measured with calipers in three dimensions. Experiment was terminated when controls reached the surrogate endpoint.
# [5] = test system: fatty acid synthesis in MCF-7 xenografts and liver; test: Ex vivo [U-14C]-acetate labeling of tumor and liver of xenografted mice; format: in vivo, mouse; conditions: 30 mg/kg intraperitoneal, within 3 hours
# Method: In a parallel experiment to determine fatty acid synthesis activity in treated and control tumors, a group of MCF-7 xenografted mice were treated with C75 or vehicle at above doses and sacrificed after 3 hours. Tumor and liver tissue were ex vivo labeled with [U^14-C] acetate, lipids were extracted and counted as described (Pizer, et al, 1996).
# [6] = Single dose LD10 determination; format: in vivo; conditions: BALB/c mice
# MCF-7 xenografts [7] = test: Histology of treated xenograft tumors; format: in vivo, mouse; conditions: 6 hours after 30 mg/kg
# Method: (§2) In an additional parallel experiment to histologically examine treated and control tumors, 6 C75 treated and 6 vehicle control mice were sacrificed 6 hours after treatment. Tumor and normal tissues were fixed in neutral-buffered formalin, processed for routine histology, and immunohistochemistry for FAS was performed. Immunohistochemistry for FAS was performed on the MCF-7 xenografts using a mouse monoclonal anti-FAS antibody (Alo, et al., 1996) at 1:2000 on the Dako Immunostainer using the LSAB2 detection kit.
# [8] = Toxicity to host in nude mice (tolerability, histology of liver and other host tissues, weight); format: in vivo, mouse
# Method: as §1, §2
# MCF-7 cells [9] = test: Cell growth inhibition assay, crystal violet; format: cell-based, human; conditions: for growth inhibition: 48 hours after treatment, Example 12
# MCF-7 cells [10] = test: Fatty acid oxidation, 14CO2 released from [14C]palmitate; format: cell-based, human
# Method: Fatty acid oxidation was measured by trapping and counting the ^14CO2 released from the oxidation of [^14C]palmitate in base. 1×10^6 MCF-7 cells were plated in T-25 flasks in triplicate and incubated overnight at 37° C. […] After 2 hours, medium with drugs was removed and cells were preincubated for 30 minutes with 1.5 ml of the following buffer: 114 mM NaCl, 4.7 mM KCI, 1.2 mM KH2PO4, 1.2 mM MgSO4, glucose 11 mM. After preincubation, 200 μl of assay buffer was added containing: 114 mM NaCl, 4.7 mM KCl, 1.2 mM KH2PO4, 1.2 mM MgSO4, glucose 11 mM, 2.5 mM palmitate (containing with 100 μCi of [1-^14C]palmitate) bound to albumin, 0.4 mM L-camitine, and cells were incubated at 37° C. for 2 hours. Following the incubation, 400 μl of benzothonium hydrochloride was added to the center well to collect released ^14CO2. […] The flasks with wells were then incubated for 2 hours at 37° C. after which the benzothonium hydrochloride was removed and counted for ^14C.
# CPT-1 = test: Carnitine palmitoyltransferase-1 (CPT-1) assay in permeabilized MCF-7 cells; format: cell-based, human
# Method: MCF-7 cells were plated in RPMI 1640 with 10% fetal bovine serum at 1×10^6 cells in six-well plates in triplicate. Following overnight incubation at 37° C., medium was removed and replaced with 700 μl of assay medium consisting of: 50 mM imidazole, 70 mM KCl, 80 mM sucrose, 1 mM EGTA, 2 mM MgCl2, 1 mM DTT, 1 mM KCN, 1 mM ATP, 0.1% fatty acid free bovine serum albumin, 70 μM palmitoyl-CoA, 0.25 μCi (methyl-^14C]L-camitine, 40 μg digitonin with or without 20 μM malonyl-CoA or other indicated inhibitors.
# After incubation for 3 or 6 minutes at 37° C., the reaction was stopped by the addition of 500 μl of ice-cold 4 M perchloric acid. Cells were then harvested and centrifuged at 10,000× g for 5 min. The pellet was washed with 500 μl ice cold perchloric acid and centrifuged again. The resulting pellet was resuspended in 800 μl dH2O and extracted with 150 μl of butanol. The butanol phase was counted by liquid scintillation and represents the acylcarnitine derivative.
# MCF-7 cells [11] = test: Clonogenic assay (Example 11); format: cell-based, human; conditions: 6 h exposure; TOFA at 5 μg/ml
# Method: After overnight incubation at 37° C., 1×10^6 MCF-7 cells were exposed to drugs as indicated for 6 h, washed, detached by trypsin digestion, counted and plated at 1000 or 500 cells/60-mm plate in triplicate. Colonies were stained with crystal violet and counted 4-6 days after plating. Controls consisted of cells incubated with DMSO without drugs. Error bars represent standard error of the mean.
# [12] = in vivo; cited from earlier work
# SKBR3 and MCF7 cells = test: Apoptosis by multiparameter flow cytometry, merocyanine 540 staining; format: cell-based, human
# Method: Apoptosis was measured by multiparameter flow cytometry using a FACStar^Plus flow cytometer equipped with argon and krypton lasers (Becton Dickinson). Apoptosis was quantified using merocyanine 540 staining (Sigma), which detects altered plasma membrane phospholipid packing that occurs early in apoptosis, added directly to cells from culture (Pizer, et al., 1998; Mower, et al., 1994, “Decreased membrane pospholipid packing and decreased cell size precede DNA cleavage in mature mouse B cell apoptosis, J. Immunol., 152:4832-4842). In some experiments, chromatin conformational changes of apoptosis were simultaneously measured as decreased staining with LDS-751 (Exciton) (Frey, et al., 1995, “Nucleic acid dyes for detection of apoptosis in live cells,” Cytometry, 21:265-274). […] Cells were stained with LDS-751 at a final concentration of 100 nM from a 1 mM stock in DMSO. The merocyanine 540-positive cells were marked by an increase in red fluorescence, collected at 575+/−20 nm, 0.5 to 2 logs over merocyanine 540-negative cells. […] Data were collected and analyzed using CellQuest software (Becton Dickinson). In these experiments, all LDS-751 dim cells were merocyanine 540 bright, however a population of merocyanine 540 bright cells were detected that were not yet LDS-751 dim. All merocyanine 540 bright cells were classified as apoptotic.
# M-CPT-1 = conditions: cited from earlier work
structure (smiles),measurement,setting,value
C=C1C(=O)OC(CCCCCCCC)C1C(=O)O (stereo not shown) [C75],[U14C-acetate] incorporation into lipids,[1],inhibited
same,dose range of maximal inhibition of FA synthesis,[1],~10 µg/mL
same,cytotoxicity in clonogenic assays,[2],significantly cytotoxic
same,malonyl-CoA levels increased over controls,MCF-7 cells [3],370%
same,difference in tumor growth compared to vehicle controls,MCF-7 xenografts [4],greater than eight-fold
same,reduction of fatty acid synthesis in MCF-7 xenografts,[5],70%
same,reduction of fatty acid synthesis in ex vivo labeled liver,[5],76%
same,LD10,[6],40 mg/kg
same,tumor histology,MCF-7 xenografts [7],numerous apoptotic bodies throughout the tumor tissue
same,tolerability,"[8]; 30 mg/kg, outbred nude mice",well tolerated
same,histological analysis of liver and other host tissues,[8]; following C75 treatment,no evidence of any short or long term toxicity
same,toxicity noted,[8]; weekly intraperitoneal treatment,transient reversible weight loss was the only toxicity noted
same,growth inhibition,MCF-7 cells [9],significant growth inhibition over control
O=C([O-])C1(CCCCCCOc2ccc(Cl)cc2)CO1.[Na+] (stereo not shown) [Etomoxir],reduction in growth,"MCF-7 cells [9]; 200 μg/ml, the only effective dose",significant reduction in growth
same,growth inhibition,MCF-7 cells [9],significant growth inhibition over control
same,growth inhibition or cytotoxicity,"MCF-7 cells [9]; doses known to inhibit CPT-1 and fatty acid oxidation, 48 or 72 h, Example 10",no significant growth inhibition or cytotoxicity
same,growth inhibition of MCF-7 cells,"MCF-7 cells [9]; over 72 h, Example 7",dose dependent growth inhibition of MCF-7 cells over 72 h greater than that of C75 at 5 μg/ml
same,fatty acid oxidation decreased over control,MCF-7 cells [10]; 50 μg/ml,> 50%
same,reduction in CPT-1 activity,CPT-1; 10 μg/ml,75%
same,cytotoxicity in clonogenic assay,MCF-7 cells [11],not significantly cytotoxic
same,toxicity in humans treated for diabetes,[12],without significant toxicity or weight loss
"CCCCCCCCCCCCCCOc1ccc(C(=O)O)o1 [TOFA, 5-(tetradecyloxy)-2-furoic acid]",[U14C-acetate] incorporation into lipids,[1],inhibited
same,dose range of maximal inhibition of FA synthesis,[1],1 to 5 µg/mL
same,reduction in clonogenicity,[2],no reduction
same,TOFA rescue of C75 cytotoxicity in clonogenic assay,[2]; MCF7 cells,modest rescue
same,TOFA rescue of cerulenin cytotoxicity in clonogenic assay,[2]; MCF7 cells,modest rescue
same,cytotoxicity in clonogenic assays,[2],non-toxic or stimulatory
same,reduction of malonyl-CoA levels,MCF-7 cells [3]; 20 μg/ml,60%
same,increase in apoptosis,SKBR3 and MCF7 cells,< 5%
same,TOFA rescue from cerulenin induced apoptosis,SKBR3 and MCF7 cells; SKBR3 and MCF7 cells,rescued cells from cerulenin induced apoptosis
same,changes in fatty acid oxidation,MCF-7 cells [10]; data not shown,nor does TOFA cause significant changes in fatty acid oxidation
same,direct inhibition of CPT-1,CPT-1,does not cause CPT-1 inhibition
same,cytotoxicity in clonogenic assay,MCF-7 cells [11],not significantly cytotoxic
C/C=C/C/C=C/CCC(=O)[C@H]1O[C@H]1C(N)=O [cerulenin],reduction in fatty acid synthesis,"[1]; MCF-7, 10 μg/ml, within 2 hours",> 50%
same,[U14C-acetate] incorporation into lipids,[1],inhibited
same,dose range of maximal inhibition of FA synthesis,[1],~10 µg/mL
same,reduction in clonogenicity,[2],70%
same,cytotoxicity in clonogenic assays,[2],significantly cytotoxic
same,increase in malonyl-CoA,MCF-7 cells [3]; 10 μg/ml,nine-fold
same,malonyl-CoA levels increased over controls,MCF-7 cells [3],930%
same,apoptosis,SKBR3 and MCF7 cells,> 85%
same,reduction in fatty acid oxidation compared to control,"MCF-7 cells [10]; 10 μg/ml, 2 hours",~50%
CC(C)(COP(=O)(O)OP(=O)(O)OC[C@H]1O[C@@H](n2cnc3c(N)ncnc32)[C@H](O)[C@@H]1OP(=O)(O)O)[C@@H](O)C(=O)NCCC(=O)NCCSC(=O)CC(=O)O [malonyl-CoA],sensitivity of M-CPT-1 versus L-CPT-1 to malonyl-CoA inhibition,M-CPT-1,100 fold
